Kd data for one molecule are collected here from paper PMC4388264, “ANS complex of St John’s wort PR-10 protein with 28 copies in the asymmetric unit: a fiendish combination of pseudosymmetry with tetartohedral twinning” (Acta Crystallographica Section D: Biological Crystallography, 2015).

In this experiment the target is T1, Hyp-1 (Hypericum perforatum, UniProt Q8H1L1).
T1 construct: gene HYP1.1; recombinant Hyp-1 with an N-terminal hexapeptide extension (GIDPFW–) as a cloning artifact
T1 sequence (Q8H1L1 1-159): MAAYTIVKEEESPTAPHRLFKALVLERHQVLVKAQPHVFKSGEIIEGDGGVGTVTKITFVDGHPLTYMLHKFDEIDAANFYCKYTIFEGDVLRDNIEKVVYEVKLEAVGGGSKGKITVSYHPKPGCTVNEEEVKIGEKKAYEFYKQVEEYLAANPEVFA
Nature of the experiment: crystal structure at […] Å and ITC (N = […]); fluorometric titration gave Kd […]. The experiment is classed as binding.

With `O=S(=O)(O)c1cccc2cccc(Nc3ccccc3)c12` [ANS, 8-anilino-1-naphthalene sulfonate], binding was characterised by a dissociation constant (Kd) of 108 ± 3 µM.
